Assay results as given in patent US10034861B2 (priority 2016, dated 2018).
Like-named read-outs stand apart in the source and are kept apart here.

Experiments:
Assay type in all cases: biochemical
PDE1C = PDE1C (Homo sapiens (Human), UniProt Q14123); test: biochemical
Text: (§1) Table 1 lists the IC50 value for inhibition of PDE1 by the compounds of the invention. […] PDE1 assays are described in the Experimental Section.

PDE1A = PDE1A (Homo sapiens (Human), UniProt P54750); test: biochemical
Text: as §1

PDE1B = PDE1B (Homo sapiens (Human), UniProt Q01064); test: PDE1 inhibition assay (PDE1B); conditions: 15 nM tritium labelled cAMP, 1 hr at room temperature, SPA beads
PDE1B, sequence (Q01064 whole entry): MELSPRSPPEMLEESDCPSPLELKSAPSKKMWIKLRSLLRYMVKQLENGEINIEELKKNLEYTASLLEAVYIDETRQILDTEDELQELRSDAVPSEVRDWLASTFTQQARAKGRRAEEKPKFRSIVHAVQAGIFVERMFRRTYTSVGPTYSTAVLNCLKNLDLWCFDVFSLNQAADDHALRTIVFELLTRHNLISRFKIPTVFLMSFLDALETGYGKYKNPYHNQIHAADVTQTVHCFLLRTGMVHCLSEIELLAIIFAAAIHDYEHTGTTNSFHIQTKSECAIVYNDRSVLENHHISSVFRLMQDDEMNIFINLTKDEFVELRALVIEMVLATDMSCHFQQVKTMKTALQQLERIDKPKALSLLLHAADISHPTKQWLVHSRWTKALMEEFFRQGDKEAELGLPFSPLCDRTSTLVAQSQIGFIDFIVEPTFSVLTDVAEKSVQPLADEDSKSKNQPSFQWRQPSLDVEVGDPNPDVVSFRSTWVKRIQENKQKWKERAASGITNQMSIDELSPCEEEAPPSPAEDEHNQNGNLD
Text: as §1

[1] = 15 nM tritium labelled cAMP, 1 hr at room temperature, SPA beads

PDE1C, sequence (Q14123 whole entry): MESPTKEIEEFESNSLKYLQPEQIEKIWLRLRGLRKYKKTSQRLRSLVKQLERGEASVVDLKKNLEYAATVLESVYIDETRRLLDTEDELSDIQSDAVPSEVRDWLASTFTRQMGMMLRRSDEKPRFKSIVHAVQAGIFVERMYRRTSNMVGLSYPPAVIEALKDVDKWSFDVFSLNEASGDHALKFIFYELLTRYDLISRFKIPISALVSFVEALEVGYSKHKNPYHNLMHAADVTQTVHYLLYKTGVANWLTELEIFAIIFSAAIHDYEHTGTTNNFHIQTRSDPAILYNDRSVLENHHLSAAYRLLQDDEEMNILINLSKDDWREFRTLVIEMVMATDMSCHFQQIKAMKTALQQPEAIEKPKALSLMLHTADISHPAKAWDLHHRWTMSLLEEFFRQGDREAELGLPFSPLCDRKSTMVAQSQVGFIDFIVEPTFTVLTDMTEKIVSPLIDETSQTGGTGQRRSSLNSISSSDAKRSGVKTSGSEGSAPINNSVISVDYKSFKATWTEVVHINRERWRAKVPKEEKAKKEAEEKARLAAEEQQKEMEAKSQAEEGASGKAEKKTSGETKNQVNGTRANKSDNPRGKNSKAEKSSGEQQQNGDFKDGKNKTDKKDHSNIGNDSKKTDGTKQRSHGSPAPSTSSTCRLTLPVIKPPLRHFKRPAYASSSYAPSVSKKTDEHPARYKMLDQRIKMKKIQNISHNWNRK
PDE1A, sequence (P54750 whole entry): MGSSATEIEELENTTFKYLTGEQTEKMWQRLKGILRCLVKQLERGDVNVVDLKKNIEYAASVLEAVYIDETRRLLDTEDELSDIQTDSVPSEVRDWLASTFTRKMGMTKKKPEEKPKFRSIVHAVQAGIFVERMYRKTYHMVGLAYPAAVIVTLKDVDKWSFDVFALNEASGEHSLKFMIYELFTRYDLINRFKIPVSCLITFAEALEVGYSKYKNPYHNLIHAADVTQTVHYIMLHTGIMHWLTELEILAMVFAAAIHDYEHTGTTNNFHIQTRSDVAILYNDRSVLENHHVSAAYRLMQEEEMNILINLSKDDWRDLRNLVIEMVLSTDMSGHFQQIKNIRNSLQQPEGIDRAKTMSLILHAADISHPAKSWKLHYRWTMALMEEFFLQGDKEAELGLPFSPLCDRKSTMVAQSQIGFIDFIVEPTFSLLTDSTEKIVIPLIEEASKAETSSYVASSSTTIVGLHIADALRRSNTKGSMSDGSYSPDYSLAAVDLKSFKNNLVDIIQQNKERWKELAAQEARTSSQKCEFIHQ

| SMILES | IC50 (PDE1C; [1]) [nM] | IC50 (PDE1A; [1]) [nM] | IC50 (PDE1B; read-out: PDE1B, IC50) [nM] | IC50 (PDE1B; PDE1B, IC50 (nM)) [nM] | IC50 (PDE1C) [nM] | IC50 (PDE1A) [nM] |
| --- | --- | --- | --- | --- | --- | --- |
| COc1ccccc1-c1cc(NCc2cnn(C)c2)c2c(n1)c(C)nn2C(C)C [Example 63, 1-isopropyl-5-(2-methoxyphenyl)-3-methyl-N-[(1-methylpyrazol-4-yl)methyl]pyrazolo[4,3-b]pyridin-7-amine] | 20 | 64 | 9.4 |  |  |  |
| CCOc1ncccc1-c1cc(NCc2cccnc2OC)c2c(n1)c(C)nn2C(C)C [Example 86, 5-(2-ethoxy-3-pyridyl)-1-isopropyl-N-[(2-methoxy-3-pyridyl)methyl]-3-methyl-pyrazolo[4,3-b]pyridin-7-amine] | 68 | 20 | 0.36 |  |  |  |
| CCOc1ncccc1-c1cc(NCc2c[nH]cn2)c2c(n1)c(C)nn2C(C)CC (single isomer, unassigned) [Example 130, 5-(2-ethoxy-3-pyridyl)-N-(1H-imidazol-4-ylmethyl)-3-methyl-1-[1-methylpropyl]pyrazolo[4,3-b]pyridin-7-amine] | 25 | 11 |  | 0.86 |  |  |
| CCOc1ncccc1-c1cc(NCc2cnccc2OC)c2c(n1)c(C)nn2C(C)C [Example 92, 5-(2-ethoxy-3-pyridyl)-1-isopropyl-N-[(4-methoxy-3-pyridyl)methyl]-3-methyl-pyrazolo[4,3-b]pyridin-7-amine] | 110 | 47 | 2.7 |  |  |  |
| Cc1nn(C(C)C)c2c(NCc3cnn(C)c3)cc(N3C(=O)OCC3C)nc12 (stereo not drawn) [Example 155, 3-[1-isopropyl-3-methyl-7-[(1-methylpyrazol-4-yl)methylamino]pyrazolo[4,3-b]pyridin-5-yl]-4-methyl-oxazolidin-2-one] | 3.9 | 8.2 | 4.9 |  |  |  |
| Cc1nn(C(C)C)c2c(NCc3cnn(C)c3)cc(-c3cccnc3OC(C)C)nc12 [Example 97, 5-(2-isopropoxy-3-pyridyl)-1-isopropyl-3-methyl-N-[(1-methylpyrazol-4-yl)methyl]pyrazolo[4,3-b]pyridin-7-amine] | 9.1 | 1.4 | 0.6 |  |  |  |
| Cc1nn(C(C)C)c2c(NCc3cnn(C)c3)cc(-n3cncn3)nc12 [Example 185, 1-isopropyl-3-methyl-N-((1-methyl-1H-pyrazol-4-yl)methyl)-5-(1H-1,2,4-triazol-1-yl)-1H-pyrazolo[4,3-b]pyridin-7-amine] | 92 | 100 | 24 |  |  |  |
| [2H]C([2H])(C)Oc1ncccc1-c1cc(NCc2cccnc2OC)c2c(n1)c(C)nn2C(C)C [Example 180, 5-(2-(ethoxy-1,1-d2)pyridin-3-yl)-1-isopropyl-N-((2-methoxypyridin-3-yl)methyl)-3-methyl-1H-pyrazolo[4,3-b]pyridin-7-amine] |  |  |  | 0.77 | 78 | 27 |
| CCOc1ncccc1-c1cc(CCc2ncn(C)n2)c2c(n1)c(C)nn2C(C)C [Example 160, 5-(2-ethoxy-3-pyridyl)-1-isopropyl-3-methyl-7-[2-(1-methyl-1,2,4-triazol-3-yl)ethyl]pyrazolo[4,3-b]pyridine] | 56 | 23 | 3.9 |  |  |  |
| COc1ccc(CNc2cc(-c3cccnc3OC)nc3c(C)nn(C(C)C)c23)cn1 [Example 96, 1-isopropyl-5-(2-methoxy-3-pyridyl)-N-[(6-methoxy-3-pyridyl)methyl]-3-methyl-pyrazolo[4,3-b]pyridin-7-amine] | 5.3 | 18 | 3.8 |  |  |  |
| CCN(C)c1ncccc1-c1cc(NCc2ccc(OC)cc2)c2c(n1)c(C)nn2C(C)C [Example 198, 5-(2-(ethyl(methyl)amino)pyridin-3-yl)-1-isopropyl-N-(4-methoxybenzyl)-3-methyl-1H-pyrazolo[4,3-b]pyridin-7-amine] | 1000 | 1100 | 240 |  |  |  |
| Cc1nn(C(C)C)c2c(NCc3cnn(C)c3)cc(-c3cnn(C)c3C)nc12 [Example 66, 5-(1,5-dimethylpyrazol-4-yl)-1-isopropyl-3-methyl-N-[(1-methylpyrazol-4-yl)methyl]pyrazolo[4,3-b]pyridin-7-amine] | 220 | 210 | 59 |  |  |  |
| COc1ncccc1CNc1cc(-c2cccnc2OC2CC2)nc2c(C)nn(C(C)C)c12 [Example 174, 5-(2-cyclopropoxypyridin-3-yl)-1-isopropyl-N-((2-methoxypyridin-3-yl)methyl)-3-methyl-1H-pyrazolo[4,3-b]pyridin-7-amine] | 52 | 18 | 1.5 |  |  |  |
| CCOc1ncccc1-c1cc(NCc2ccnn2C)c2c(cnn2C(C)C)n1 [Example 18, 5-(2-ethoxypyridin-3-yl)-1-isopropyl-N-((1-methyl-1H-pyrazol-5-yl)methyl)-1H-pyrazolo[4,3-b]pyridin-7-amine] | 640 | 450 | 73 |  |  |  |
| CCOc1ncccc1-c1cc(NCc2coc(C)n2)c2c(n1)c(C)nn2C(C)C [Example 37, 5-(2-ethoxy-3-pyridyl)-1-isopropyl-3-methyl-N-[(2-methyloxazol-4-yl)methyl]pyrazolo[4,3-b]pyridin-7-amine] | 18 | 5.9 | 0.43 |  |  |  |
| CCCOc1ncccc1-c1cc(NCc2ncn(C)n2)c2c(n1)c(C)nn2C(C)C [Example 145, 1-isopropyl-3-methyl-N-[(1-methyl-1,2,4-triazol-3-yl)methyl]-5-(2-propoxy-3-pyridyl)pyrazolo[4,3-b]pyridin-7-amine] | 1.2 | 0.41 | 0.095 |  |  |  |
| CCOc1ncccc1-c1cc(NCc2ncon2)c2c(n1)c(C)nn2C(C)C [Example 53, 5-(2-ethoxy-3-pyridyl)-1-isopropyl-3-methyl-N-(1,2,4-oxadiazol-3-ylmethyl)pyrazolo[4,3-b]pyridin-7-amine] | 17 | 9.3 | 0.89 |  |  |  |
| CCOc1ncccc1-c1cc(NCc2ncn(C)n2)c2c(n1)c(C)nn2C1COC1 [Example 163, 5-(2-ethoxy-3-pyridyl)-3-methyl-N-[(1-methyl-1,2,4-triazol-3-yl)methyl]-1-(oxetan-3-yl)pyrazolo[4,3-b]pyridin-7-amine] | 120 | 120 | 14 |  |  |  |
| CCOc1ncccc1-c1cc(NCc2cc[nH]n2)c2c(cnn2C(C)C)n1 [Example 57, 5-(2-ethoxy-3-pyridyl)-1-isopropyl-N-(1H-pyrazol-3-ylmethyl)pyrazolo[4,3-b]pyridin-7-amine] | 170 | 98 | 4.8 |  |  |  |
| CCOc1ncccc1-c1cc(NCc2cn(C)cn2)c2c(n1)c(C)nn2C(C)C [Example 58, 5-(2-ethoxypyridin-3-yl)-1-isopropyl-3-methyl-N-((1-methyl-1H-imidazol-4-yl)methyl)-1H-pyrazolo[4,3-b]pyridin-7-amine 2,2,2-trifluoroacetate] | 2.1 | 1.1 | 0.17 |  |  |  |
| CCOc1ncccc1-c1cc(NCc2cnn(C)c2)c2c(cnn2C2COC2)n1 [Example 14, 5-(2-ethoxypyridin-3-yl)-N-((1-methyl-1H-pyrazol-4-yl)methyl)-1-(oxetan-3-yl)-1H-pyrazolo[4,3-b]pyridin-7-amine] | 300 | 450 | 38 |  |  |  |
| CCOc1ncccc1-c1cc(SCc2cnn(C)c2)c2c(n1)c(C)nn2C(C)C [Example 164, 5-(2-ethoxy-3-pyridyl)-1-isopropyl-3-methyl-7-[(1-methylpyrazol-4-yl)methylsulfanyl]pyrazolo[4,3-b]pyridine] | 25 |  |  | 1.6 |  | 6.8 |
| CCOc1ncccc1-c1cc(NCc2nccs2)c2c(cnn2C(C)C)n1 [Example 20, 5-(2-ethoxy-3-pyridyl)-1-isopropyl-N-(thiazol-2-ylmethyl)pyrazolo[4,3-b]pyridin-7-amine] | 600 | 520 | 37 |  |  |  |
| COc1ncccc1CNc1cc(-c2ccc[nH]c2=O)nc2c(C)nn(C(C)C)c12 [Example 171, 3-[1-isopropyl-7-[(2-methoxy-3-pyridyl)methylamino]-3-methyl-pyrazolo[4,3-b]pyridin-5-yl]-1H-pyridin-2-one] | 420 | 290 | 47 |  |  |  |
| CCOc1ncccc1-c1cc(NCc2cnn(CC)c2)c2c(n1)c(C)nn2C(C)C [Example 109, 5-(2-ethoxy-3-pyridyl)-N-[(1-ethylpyrazol-4-yl)methyl]-1-isopropyl-3-methyl-pyrazolo[4,3-b]pyridin-7-amine] | 11 | 4.9 | 0.66 |  |  |  |
| CCOc1ncccc1-c1cc(NCc2cc(C)cs2)c2c(n1)c(C)nn2C(C)C [Example 35, 5-(2-ethoxy-3-pyridyl)-1-isopropyl-3-methyl-N-[(4-methyl-2-thienyl)methyl]pyrazolo[4,3-b]pyridin-7-amine] | 32 | 7.3 | 1.7 |  |  |  |
| CCOc1ncccc1-c1cc(NCc2c[nH]cn2)c2c(n1)c(C)nn2C(C)C [Example 40, 5-(2-ethoxy-3-pyridyl)-N-(1H-imidazol-4-ylmethyl)-1-isopropyl-3-methyl-pyrazolo[4,3-b]pyridin-7-amine] | 32 | 14 | 1 |  |  |  |
| Cc1nn(C(C)C)c2c(NCc3cnn(C)c3)cc(-c3ncnn3C)nc12 [Example 195, 1-isopropyl-3-methyl-5-(1-methyl-1H-1,2,4-triazol-5-yl)-N-((1-methyl-1H-pyrazol-4-yl)methyl)-1H-pyrazolo[4,3-b]pyridin-7-amine] | 160 | 420 | 110 |  |  |  |
| CCOc1ncccc1-c1cc(NCc2ncc(F)cn2)c2c(n1)c(C)nn2C(C)C [Example 83, 5-(2-ethoxy-3-pyridyl)-N-[(5-fluoropyrimidin-2-yl)methyl]-1-isopropyl-3-methyl-pyrazolo[4,3-b]pyridin-7-amine] | 38 | 17 | 1.2 |  |  |  |
